Assay results published in patent US20170057954A1, “SUBSTITUTED IMIDAZO[1,2-A]PYRIDINECARBOXAMIDES AND THEIR USE” (Bayer Pharma Aktiengesellschaft, priority 2014, published 2017).

System: recombinant guanylate cyclase reporter cell line
Experiment: Effect on a recombinant guanylate cyclase reporter cell line
Assay type: cell-based
Conditions: in some cases mean values for individual determinations, read-out: MEC (minimum effective concentration)
Experimental: B-2. Effect on a Recombinant Guanylate Cyclase Reporter Cell Line
The cellular activity of the compounds according to the invention is determined using a recombinant guanylate cyclase reporter cell line, as described in F. Wunder et al., Anal. Biochem. 339, 104-112 (2005).
Representative MEC values (MEC=minimum effective concentration) for the compounds of the invention are shown in the table below (in some cases as mean values for individual determinations): […]

`Cc1cc(OCc2c(F)cccc2F)c2nc(C)c(C(=O)NNc3nnc(C(C)(C)C)s3)n2c1` [Example 35] and `Cc1cc(OCc2c(F)cccc2F)c2nc(C)c(C(=O)NNc3ccc(C(C)(C)C)cc3)n2c1` [Example 47] are the same in minimal effective concentration: 3 µM for the first, 3 µM for the second.

Going from `Cc1cc(OCc2c(F)cccc2F)c2nc(C)c(C(=O)NOCC(=O)NCc3ccc(Cl)cc3)n2c1` [Example 4] to `COCC(=O)NNC(=O)c1c(C)nc2c(OCc3c(F)cccc3F)cc(C)cn12` [Example 32], the minimal effective concentration falls from 3 µM to 1 µM (3-fold).

Compared with `Cc1nc2c(OCC3CCCCC3)cccn2c1C(=O)NN1CCOCC1` [Example 15], `Cc1cc(OCc2c(F)ccc(C3CC3)c2F)c2nc(C)c(C(=O)NN3CCOCC3)n2c1` [Example 26] is 10-fold higher in minimal effective concentration: 1 µM for the first, 10 µM for the second.

Going from `Cc1cc(OC(C)c2c(F)cccc2F)c2nc(C)c(C(=O)NOCCO)n2c1` (centres unmarked) [Example 13] to `CONC(=O)c1c(C)nc2c(OCc3c(F)cccc3F)cc(C)cn12` [Example 29], the minimal effective concentration falls from 10 µM to 1 µM (10-fold).

Compared with `Cc1cc(OCc2c(F)cccc2F)c2nc(C)c(C(=O)NOCC3CCCN3)n2c1` (centres unmarked) [Example 8], `C=CCONC(=O)c1c(C)nc2c(OCc3c(F)cccc3F)cc(C)cn12` [Example 28] is 10-fold lower in minimal effective concentration: 3 µM for the first, 0.3 µM for the second.

`Cc1cc(OCc2c(F)cccc2F)c2nc(C)c(C(=O)NNc3ccc(Cl)c(Cl)c3)n2c1` [Example 52] and `Cc1cccc(NNC(=O)c2c(C)nc3c(OCc4c(F)cccc4F)cc(C)cn23)c1` [Example 39] are the same in minimal effective concentration: 0.3 µM for the first, 0.3 µM for the second.

Going from `CCCCNNC(=O)c1c(C)nc2c(OCc3c(F)cccc3F)cc(C)cn12` [Example 63] to `CCOC(=O)CNNC(=O)c1c(C)nc2c(OCc3c(F)cccc3F)cc(C)cn12` [Example 68], the minimal effective concentration falls from 3 µM to 1 µM (3-fold).

Going from `Cc1cc(OCc2c(F)cccc2F)c2nc(C)c(C(=O)NNc3cc(Cl)c(C)cc3C)n2c1` [Example 58] to `Cc1cc(OCc2c(F)cccc2F)c2nc(C)c(C(=O)NNc3ccc(F)cc3)n2c1` [Example 55], the minimal effective concentration falls from 0.3 µM to 0.1 µM (3-fold).

First: CCCc1nc2c(OCc3c(F)cccc3F)cc(C)cn2c1C(=O)NN1CCOCC1 [Example 17]
Second: CCc1nc2c(OCc3c(F)cccc3F)cc(C)cn2c1C(=O)NN1CCOCC1 [Example 20]
The minimal effective concentration of the first is 10-fold higher: 10 µM for the first, 1 µM for the second.

`Cc1cc(OCc2c(F)cccc2F)c2nc(C)c(C(=O)NOCc3ccccc3C#N)n2c1` [Example 59] and `Cc1cc(OCc2c(F)cccc2F)c2nc(C)c(C(=O)NNc3cnc4ccccc4n3)n2c1` [Example 56] are the same in minimal effective concentration: 1 µM for the first, 1 µM for the second.

First: Cc1cc(OCc2c(F)cccc2F)c2nc(C)c(C(=O)NNC3CS(=O)(=O)CC3C)n2c1 (centres unmarked) [Example 72]
Second: Cc1cc(OCc2c(F)cccc2F)c2nc(C)c(C(=O)NNCC(F)(F)F)n2c1 [Example 41]
The minimal effective concentration of the first is 10-fold higher: 3 µM for the first, 0.3 µM for the second.

Going from `CCCCCCC(C)NNC(=O)c1c(C)nc2c(OCc3c(F)cccc3F)cc(C)cn12` (centres unmarked) [Example 42] to `Cc1cc(OCc2c(F)cccc2F)c2nc(C)c(C(=O)NN3CCCCCC3)n2c1` [Example 62], the minimal effective concentration falls from 3 µM to 0.1 µM (30-fold).

First: Cc1cc(OCc2c(F)cccc2F)c2nc(C)c(C(=O)NNc3cccc(Oc4ccccc4)c3)n2c1 [Example 36]
Second: Cc1cc(OCc2c(F)cccc2F)c2nc(C)c(C(=O)NNc3ccc4ccccc4c3)n2c1 [Example 34]
The minimal effective concentration of the first is 10-fold higher: 10 µM for the first, 1 µM for the second.

`COc1ccc(F)c(COc2cc(C)cn3c(C(=O)NN4CCOCC4)c(C)nc23)c1F` [Example 25] and `O=C(NN1CCOCC1)c1cnc2c(OCc3c(F)cccc3F)cccn12` [Example 23] are the same in minimal effective concentration: 10 µM for the first, 10 µM for the second.

With `Cc1cc(OCc2c(F)cccc2F)c2nc(C)c(C(=O)NNc3cccc(C(F)(F)F)c3)n2c1` [Example 45] the minimal effective concentration was 0.3 µM.
